Measurements: patent publication EP4725490A1, “EED INHIBITOR SOLID DISPERSION, ORAL FORMULATION COMPRISING SAME, AND PREPARATION METHOD THEREFOR” (Ascentage Pharma (Suzhou) Co., Ltd., priority 2023, dated 2024)
Converted amounts (≈) assume the structure as drawn.

Key:
[1] = Solubility of compound A in various solvents (standard solubility determination); type: physicochemical; settings: organic solvent or mixture, 25 °C
Description: The solubility (25 °C) of the active ingredient compound A in various solvents was determined using a standard solubility determination method well known in the art.

[2] = Solubility of compound A in aqueous buffer; type: physicochemical; settings: pH 1.2, aqueous buffer, thermodynamic from solid, pH of 1.2 to 7.4, 37 °C/24 h
Source text: The starting material of compound A is an anhydrous crystal powder with slight hygroscopicity, which is almost insoluble in water. […] For such drugs with poor water solubility, the dissolution of the drugs in gastrointestinal fluids is the rate-limiting step of their bioavailability, and poor water solubility will necessarily lead to low dissolution and thus lower bioavailability. Therefore, if the bioavailability of the drug is to be improved, the dosage form, formula composition, and process need to be specially designed to change the dispersion state of the drug and promote its dissolution in the gastrointestinal tract.

CC(C)N1Cc2cc(C(F)(F)F)ncc2-c2cnc(NCc3c(F)ccc4c3CCO4)n3cnc(c23)C1=O [compound A, 12-(((5-fluoro-2,3-dihydrobenzofuran-4-yl)methyl)amino)-4-isopropyl-7-(trifluoromethyl)-4,5-dihydro-3H-2,4,8,11,12a-pentaazabenzo[4,5]cycloocta[1,2,3-cd]inden-3-one]
solubility ([1]; Acetonitrile): 1.2 mg/mL (≈ 2.28 mM) | solubility ([1]; DMF): 33 mg/mL (≈ 62.7 mM) | solubility ([1]; DMSO): 33 mg/mL (≈ 62.7 mM) | solubility ([1]; Dichloromethane): 10 mg/mL (≈ 19 mM) | solubility ([1]; Ethanol): 1.1 mg/mL (≈ 2.09 mM) | solubility ([1]; Methanol: dichloromethane (1:1)): 28.5 mg/mL (≈ 54.1 mM) | solubility ([1]; Methanol: dichloromethane (1:2)): 50 mg/mL (≈ 95 mM) | solubility ([1]; Methanol: dichloromethane (1:3)): 83 mg/mL (≈ 158 mM) | solubility ([1]; Methanol: dichloromethane (1:4)): 83 mg/mL (≈ 158 mM) | solubility ([1]; Methanol: dichloromethane (1:5)): 83 mg/mL (≈ 158 mM) | solubility ([1]; Methanol: dichloromethane (2:1)): 14.3 mg/mL (≈ 27.2 mM) | solubility ([1]; Methanol: dichloromethane (3:1)): 7.7 mg/mL (≈ 14.6 mM) | solubility ([1]; Methanol): 4.3 mg/mL (≈ 8.17 mM) | solubility ([1]; N-methylpyridine): 11 mg/mL (≈ 20.9 mM) | solubility ([1]; Tetrahydrofuran): 2 mg/mL (≈ 3.8 mM) | solubility ([1]; Toluene): 3.3 mg/mL (≈ 6.27 mM) | solubility at 24 h [2]: 0.08 to 0.39 µg/mL (≈ 0.000152 to 0.000741 mM)
